We go through 2 molecules from patent publication EP3050886A1, “Fluorescent dyes and dye precursors” (Bürkert Werke GmbH, priority 2015, dated 2016).

Data set [1] is described as follows: Absorption spectra / extinction coefficients. The format is physicochemical. To be noted: pro-fluorophores, PBS buffer containing 0.6 % glutaraldehyde at pH 7. On the procedure: Absorption spectra were recorded in a 1-cm path length cuvette (Hellma, 104.002B-QS) on a SPECORD®-205 spectrometer from Analytik Jena.
The Extinction coefficients of the flourophores fluorescein, 5-carboxyfluorescein (5-CF), 5-carboxy Oregon Green™ (5-COG), 5-amido N-propyl Oregon Green (5-POG; Example 2) and 5-amido N-propyl fluorescein (5-PFA; Example 3) were measured in 0.1 M NaOH solution at pH 12.7.
The extinction coefficients of the pro-fluorophores 5-thiourea N-propyl fluorescein diacetate (5-PFDAT; Example 5), 5-propyl carboxylate fluorescein diacetate (5-PFDAE; Example 8), 5-amido N-propyl fluorescein diacetate (5-PFDA; Example 7), 5-carboxy Oregon Green diacetate (5-COGDA; Example 9), 5-amido N-propyl Oregon Green diacetate (5-POGDA; Example 6) and 5-amido N-propyl Oregon Green acetoxymethylester (5-POGAM; Example 10) were measured in PBS buffer containing 0.6 % glutaraldehyde at pH 7.

A short description of data set [2]: Short-term chemical stability (spontaneous fluorescence generation) in aqueous buffer. The format is physicochemical. The following applies: for chemical stability in aqueous solution (in words): PBS solution containing 0.6 % glutaraldehyde, 37°C; for relative speed of spontaneous fluorescence generation (spontaneous hydrolysis): relative to 5-CFDA, 15 µM, PBS containing 0.6 % glutaraldehyde, pH ~7, 37°C, 0-60 min. The procedure: The short-term chemical stability of the pro-fluorophores of the present invention in an aqueous buffer was evaluated by fluorometric measurement analysis after several minutes of storage at 37°C.
Each pro-fluorophore (5-CFDA, 5-PFDAE, 5-PFDAT, 5-PFDA, 5-COGDA, 5-POGDA, 5-POGAM) was dissolved in dimethylsulfoxide (DMSO) in order to prepare a 10 mM stock solution. Short-term stability studies (0-60 min) were performed in the absence of light at 37°C. The pro-fluorophore stock solutions were diluted into a PBS solution containing 0.6 % of glutaraldehyde (pH ∼7). The pro-fuorophore final concentration was 15 µM. Samples were stored in a fluorescence grade quartz cuvette having a volume of 1 ml. Fluorescence emission spectra between 500 and 540 nm were recorded every 10 minutes. The excitation wavelength used was 488 nm. Fluorometric measurement were made with a FluoroLog®-3. (Horiba Jobin Yvon) spectrofluorometer equipped with sample stirring. The same experiment was repeated three times (n = 3).
Thus, the slope of the straight line corresponds to the speed of spontaneous fluorescence generation.

Another data set concerns E. coli (EC18). Put plainly: Immunofluorescence and viability staining of E. coli. The class given is cell-based, Escherichia coli. The following applies: 15 µM, 30 min at 37 °C, PBS containing 0.6 % glutaraldehyde. The procedure:
Environmental E. Coli (EC18) were cultivated and re-suspended in PBS as described above. A dead bacterial suspension was also prepared as previously described. Dead or viable E. coli (EC18) (100 µl of suspension at 1.10^9 bacteria/ml) were incubated with rabbit anti-EC18 polyclonal antibodies (anti-EC18 pAb) (dilution 1/20) for 1 h at room temperature. This anti-EC 18 pAb was obtained from immunized rabbit with inactivated EC18 (Eurogentec). Bacteria were washed in PBS by centrifugation at 10000 rpm for 3 min at room temperature. Then, they were resuspended in 200 µl of PBS solution containing 0.6 % of glutaraldehyde with 15 µM of 5-POGDA and incubated for 30 min at 37 °C in the absence of light. Following several washes with PBS as described above, dead or viable E. coli (EC18) were re-suspended in 200 µl of PBS and incubated for 1 h at room temperature in the absence of light with AlexaFluor 568 labeled anti-rabbit immunoglobulin (dilution 1/1000) (Molecularprobes, A11036). Bacteria were washed twice and re-suspended in 100 µl of PBS. They were imaged with a Leica DM5500 microscope equipped with FITC and Cy3 filters. Images were collected with a 100x objective. The same experiment was repeated three times (n = 3).

SMILES strings stand for the structures. “Also recorded” adds a separate entry of the source.

As to `CCCNC(=O)c1ccc2c(c1)C(=O)OC21c2cc(F)c(OCOC(C)=O)cc2Oc2cc(OCOC(C)=O)c(F)cc21` [Example 5-POGAM, 2',7'-difluoro-3-oxo-5-(propylcarbamoyl)-3H-spiroisobenzofuran-1,9'-xanthene-3',6'-diyl diacetoxymethyl ether], in data set [1], the “E (extinction coefficient)” value was found to be 11165 ± 334 M⁻¹ cm⁻¹ and the λAbs max was determined as 302 nm. Moreover, in data set [2], the “chemical stability in aqueous solution (in words)” value was “greater chemical stability in aqueous solution; also recorded: much more stable in aqueous solution” and the “relative speed of spontaneous fluorescence generation (spontaneous hydrolysis)” value is reported as “almost four times slower”.

For the molecule `CCCNC(=O)c1ccc2c(c1)C(=O)OC21c2cc(F)c(OC(C)=O)cc2Oc2cc(OC(C)=O)c(F)cc21` [Example 5-POGDA, 2',7'-difluoro-3-oxo-5-(propylcarbamoyl)-3H-spiro[isobenzofuran-1,9'-xanthene]-3',6'-diyl diacetate], in data set [1], the “E (extinction coefficient)” value came out at 9784 ± 351 M⁻¹ cm⁻¹ and the λAbs max came out at 303 nm. In data set [2], the “chemical stability in aqueous solution (in words)” value is “less stable” and the “relative speed of spontaneous fluorescence generation (spontaneous hydrolysis)” value was “almost six times higher”. Further, in the data set with E. coli (EC18), the “green fluorescence of viable and dead E. coli (EC18) coated with antibodies” value was “bright green fluorescence; also recorded: viable cells have a green fluorescence and dead cells have no green fluorescence”.
